Laboratory results published in US20260184663A1, “INDENE COMPOUNDS, PHARMACEUTICAL COMPOSITIONS THEREOF, AND THEIR THERAPEUTIC APPLICATIONS” (NucMito Pharmaceuticals co. Ltd., priority 2022, published 2026).

Key:
Type in all cases: cell-based
[1] = tested on: alpha-smooth muscle actin (α-SMA); assay: Inhibition of TGF-β induced expression of alpha-smooth muscle actin (α-SMA) in CFSC cells (western blot); conditions: compound at 10 μM, TGF-β (10 ng/mL), 24 hours, band intensity vs TGF-β only
Procedure, shortened: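 CFSC hepatic stellate cells in serum-free DMEM treated 24 h at 37 °C with compound at 10 μM plus TGF-β (10 ng/mL). α-SMA measured by Western blot with β-actin, ECL detection, densitometry. Percent inhibition is decrease in band intensity versus TGF-β-only cells.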

[2] = tested on: MDA-MB-231 (breast cancer); assay: Antiproliferative activity (CCK-8 cell viability), MDA-MB-231; conditions: Homo sapiens, 72 h; for inhibition at 3.3 µM: Compound concentration: 3.3 μM; for inhibition at 3.3 µM / inhibition at 10 µM: read-out: Antiproliferative activity in cancerous cells, MDA-MB-231 (inhibition of cell growth); for inhibition at 10 µM: Compound concentration: 10 μM
Procedure, shortened: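 MDA-MB-231 breast cancer cells, grown in DMEM with 10% FBS, were plated in 96-well plates at 2,000-5,000 cells/well. Once attached, they were exposed to compound and incubated at 37° C. for 72 h. Viability was then measured with CCK-8 (10 μL per well, 4 h at 37° C.) by absorbance at 450 nm, relative to DMSO vehicle wells.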

HepG2 (liver cancer) = assay: Antiproliferative activity (CCK-8 cell viability), HepG2; conditions: Homo sapiens, 72 h; for inhibition at 3.3 µM: Compound concentration: 3.3 μM; for inhibition at 3.3 µM / inhibition at 10 µM: read-out: Antiproliferative activity in cancerous cells, HepG2 (inhibition of cell growth); for inhibition at 10 µM: Compound concentration: 10 μM
Procedure, shortened: (§1)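 Cells grown in DMEM (HepG2, SW480), MEM (HeLa) or F-12K (A549), each with 10% FBS, then exposed to compound at 3.3, 10 or 30 μM for 72 h at 37 °C. CCK-8 absorbance at 450 nm; viability expressed as percent of DMSO-treated cells, graded as growth inhibition bands.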

SW480 (colon cancer) = assay: Antiproliferative activity (CCK-8 cell viability), SW480; conditions: Homo sapiens, 72 h; for inhibition at 3.3 µM: Compound concentration: 3.3 μM; for inhibition at 3.3 µM / inhibition at 10 µM: read-out: Antiproliferative activity in cancerous cells, SW480 (inhibition of cell growth); for inhibition at 10 µM: Compound concentration: 10 μM
Procedure, shortened: as §1

[3] = tested on: B16F10 (malignant melanoma); assay: Antiproliferative activity (CCK-8 cell viability), B16F10; conditions: Mus musculus, 72 h; for inhibition at 3.3 µM: B16-F10, Compound concentration: 3.3 μM; for inhibition at 3.3 µM / inhibition at 10 µM: read-out: Antiproliferative activity in cancerous cells, B16F10 (inhibition of cell growth); for inhibition at 10 µM: B16-F10, Compound concentration: 10 μM
Procedure, shortened: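 B16F10 melanoma cells grown in DMEM with 10% FBS were plated in 96-well plates at 2,000-5,000 cells/well. After attachment they were exposed to compound in medium for 72 h at 37° C. CCK-8 solution (10 μL) was then added, and after 4 h at 37° C absorbance was read at 450 nm.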

[4] = tested on: A431 (epidermoid carcinoma); assay: Antiproliferative activity (CCK-8 cell viability), A431; conditions: Homo sapiens, 72 h; for inhibition at 3.3 µM: A-431, Compound concentration: 3.3 μM; for inhibition at 3.3 µM / inhibition at 10 µM: read-out: Antiproliferative activity in cancerous cells, A431 (inhibition of cell growth); for inhibition at 10 µM: A-431, Compound concentration: 10 μM
Procedure, shortened: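 A431 epidermoid carcinoma cells grown in DMEM with 10% FBS were plated at 2,000-5,000 cells/well in 96-well plates. After attachment they were exposed to compound at 3.3 μM, 10 μM, or 30 μM for 72 h at 37° C. Viability was then assessed by CCK-8 against DMSO vehicle-treated wells.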

[5] = tested on: A549 (lung adenocarcinoma); assay: Antiproliferative activity (CCK-8 cell viability), A549; conditions: Homo sapiens, 72 h; for inhibition at 3.3 µM: Compound concentration: 3.3 μM; for inhibition at 3.3 µM / inhibition at 10 µM: read-out: Antiproliferative activity in cancerous cells, A549 (inhibition of cell growth); for inhibition at 10 µM: Compound concentration: 10 μM; for inhibition at 30 µM: Compound concentration: 30 μM, read-out: Antiproliferative activity in cancerous cells, A549
Procedure, shortened: as §1

HeLa (cervical cancer) = assay: Antiproliferative activity (CCK-8 cell viability), HeLa; conditions: Homo sapiens, 72 h; for inhibition at 3.3 µM: Compound concentration: 3.3 μM; for inhibition at 3.3 µM / inhibition at 10 µM: read-out: Antiproliferative activity in cancerous cells, HELA (inhibition of cell growth); for inhibition at 10 µM: Compound concentration: 10 μM
Procedure, shortened: as §1

SMILES	inhibition at 10 µM [1] [%]	inhibition at 3.3 µM [2] [%]	inhibition at 10 µM [2] [%]	inhibition at 3.3 µM (HepG2 (liver cancer)) [%]	inhibition at 10 µM (HepG2 (liver cancer)) [%]	inhibition at 3.3 µM (SW480 (colon cancer)) [%]	inhibition at 10 µM (SW480 (colon cancer)) [%]	inhibition at 3.3 µM [3] [%]	inhibition at 10 µM [3] [%]	inhibition at 3.3 µM [4] [%]	inhibition at 10 µM [4] [%]	inhibition at 3.3 µM [5] [%]	inhibition at 10 µM [5] [%]	inhibition at 3.3 µM (HeLa (cervical cancer)) [%]	inhibition at 10 µM (HeLa (cervical cancer)) [%]	also measured
CC1=C(CC(=O)O)c2c(F)cccc2/C1=C\c1cccc(Oc2ccccc2)c1 [C21, (Z)-2-(4-Fluoro-2-methyl-1-(3-phenoxybenzylidene)-1H-inden-3-yl)acetic acid]	< 30	≥ 50	≥ 50	< 30	30 to 50	< 30	< 30	< 30	< 30	< 30	≥ 50	30 to 50	30 to 50	30 to 50	≥ 50	
CCCC1=C(CC(=O)O)c2cc(F)ccc2/C1=C\c1cccc(Oc2ccccc2)c1 [C22, (Z)-2-(5-Fluoro-1-(3-phenoxybenzylidene)-2-propyl-1H-inden-3-yl)acetic acid]	> 80	≥ 50	≥ 50	< 30	≥ 50	< 30	30 to 50	30 to 50	≥ 50	< 30	≥ 50	≥ 50	≥ 50	< 30	≥ 50	
CC1=C(CC(=O)O)c2ccc(F)c(F)c2/C1=C\c1cccc(Oc2ccccc2)c1 [C23, (Z)-2-(6,7-Difluoro-2-methyl-1-(3-phenoxybenzylidene)-1H-inden-3-yl)acetic acid]	< 30	≥ 50	≥ 50	< 30	< 30	< 30	< 30	30 to 50	≥ 50	< 30	< 30	< 30	< 30	30 to 50	≥ 50	
C=CC1=C(CC(=O)O)c2ccccc2/C1=C\c1ccc(Oc2ccc(F)cc2)cc1 [C25, (Z)-2-(1-(4-(4-Fluorophenoxy)benzylidene)-2-vinyl-1H-inden-3-yl)acetic acid]	< 30	≥ 50	≥ 50	< 30	< 30	30 to 50	30 to 50	≥ 50	≥ 50	< 30	< 30	< 30	30 to 50	30 to 50	30 to 50	inhibition at 30 µM [5]: 30 to 50%
CC1=C(Cc2noc(=O)[nH]2)c2cc(F)ccc2/C1=C\c1ccc(Oc2ccc(F)cc2)cc1 [C26, (Z)-3-((5-Fluoro-1-(4-(4-fluorophenoxy)benzylidene)-2-methyl-1H-inden-3-yl)-methyl)-1,2,4-oxadiazol-5(4H)-one]	> 80	≥ 50	≥ 50	< 30	≥ 50	< 30	≥ 50	< 30	≥ 50	< 30	≥ 50	30 to 50	≥ 50	< 30	≥ 50	
COc1ccc2c(c1)/C(=C\c1ccc(Oc3ccc(F)cc3)cc1)C(Cc1ccccc1)=C2CC(=O)O [C27, (Z)-2-(2-Benzyl-1-(4-(4-fluorophenoxy)benzylidene)-6-methoxy-1H-inden-3-yl)-acetic acid]	> 80	≥ 50	≥ 50	≥ 50	≥ 50	< 30	≥ 50	30 to 50	≥ 50	< 30	≥ 50	≥ 50	≥ 50	≥ 50	≥ 50	
CC1=C(C(C)C(=O)O)c2ccccc2/C1=C\c1ccc(Oc2ccc(F)cc2)cc1 (centres unmarked) [C29, (Z)-2-(1-(4-(4-Fluorophenoxy)benzylidene)-2-methyl-1H-inden-3-yl)propanoic acid]	50 to 80	30 to 50	≥ 50	< 30	≥ 50	30 to 50	30 to 50	30 to 50	≥ 50	< 30	≥ 50	< 30	30 to 50	≥ 50	≥ 50	
CC1=C(Cc2noc(=O)[nH]2)c2cc(F)ccc2/C1=C\c1cccc(Oc2ccccc2)c1 [C32, (Z)-3-((5-Fluoro-2-methyl-1-(3-phenoxybenzylidene)-1H-inden-3-yl)methyl)-1,2,4-oxadiazol-5(4H)-one]	< 30	≥ 50	≥ 50	< 30	< 30	< 30	< 30	< 30	30 to 50	< 30	< 30	< 30	< 30	< 30	30 to 50	
COc1ccc(Oc2ccc(/C=C3/C(C)=C(CC(=O)O)c4cc(F)ccc43)cn2)cc1 [C35, (Z)-2-(5-Fluoro-1-((6-(4-methoxyphenoxy)pyridin-3-yl)methylene)-2-methyl-1H-inden-3-yl)acetic acid]	< 30	< 30	< 30	< 30	< 30	< 30	30 to 50	< 30	< 30	< 30	< 30	≥ 50	≥ 50	< 30	< 30	inhibition at 30 µM ([2]; Compound concentration: 30 μM, read-out: Antiproliferative activity in cancerous cells, MDA-MB-231): 30 to 50%; inhibition at 30 µM (HepG2 (liver cancer); Compound concentration: 30 μM, read-out: Antiproliferative activity in cancerous cells, HepG2): < 30%; inhibition at 30 µM (SW480 (colon cancer); Compound concentration: 30 μM, read-out: Antiproliferative activity in cancerous cells, SW480): < 30%; inhibition at 30 µM ([3]; B16-F10, Compound concentration: 30 μM, read-out: Antiproliferative activity in cancerous cells, B16F10): < 30%; inhibition at 30 µM ([4]; A-431, Compound concentration: 30 μM, read-out: Antiproliferative activity in cancerous cells, A431): < 30%; inhibition at 30 µM [5]: 30 to 50%; inhibition at 30 µM (HeLa (cervical cancer); Compound concentration: 30 μM, read-out: Antiproliferative activity in cancerous cells, HELA): < 30%
